{"source": "patent US20080167284A1", "about": "“Hair And/Or Scalp Care Compositions Incorporating Visnadin” (priority 2005, published 2008)", "key": {"[1]": {"target": "T1, Cannabinoid Receptor 2 (CB2R), human recombinant CB2 (Homo sapiens, UniProt P34972)", "T1 construct": "purchased Perkin-Elmer; host or cells: HEK293", "T1 sequence (P34972 whole entry)": "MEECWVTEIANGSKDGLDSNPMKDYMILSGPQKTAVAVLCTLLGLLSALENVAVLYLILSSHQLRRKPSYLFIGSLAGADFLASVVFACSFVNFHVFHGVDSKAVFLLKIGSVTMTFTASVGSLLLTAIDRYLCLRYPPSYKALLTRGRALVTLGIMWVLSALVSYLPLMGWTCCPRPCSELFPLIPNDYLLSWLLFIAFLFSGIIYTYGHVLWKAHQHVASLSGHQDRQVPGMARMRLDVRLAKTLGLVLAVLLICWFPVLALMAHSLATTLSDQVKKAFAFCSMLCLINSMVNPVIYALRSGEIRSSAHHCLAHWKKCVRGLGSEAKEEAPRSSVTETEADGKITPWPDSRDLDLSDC", "experiment": "CB2R radioligand experiment on membranes from HEK293 cells over-expressing human recombinant CB2", "assay_type": "binding", "conditions": "human recombinant CB2, radioligand [3H]CP-55,495, n=3", "procedure": "(§1) Visnadin was evaluated for its ability to activate Cannabinoid Receptor 1 (CB1R) and Cannabinoid Receptor 2 (CB2R).\nCB2R experiments were performed using membranes from HEK293 cells over-expressing human recombinant CB2, as described by the manufacturer (Perkin-Elmer), and using [3H]CP-55,495 as the radioligand.\n(§2) Data of active compounds are expressed in Ki (mM) and are means±SEM of n=3 determinations.\n(§3) The values that are stated for each of the compounds is an EC50 value. This is defined as the molar concentration of an agonist, which produces 50% of the maximum possible response for that agonist. The values documented are in micromolar units."}, "[2]": {"target": "T2, Cannabinoid Receptor 1 (CB1R), human recombinant CB1 (Homo sapiens, UniProt P21554)", "T2 construct": "purchased Perkin-Elmer; host or cells: HEK293", "T2 sequence (P21554 whole entry)": "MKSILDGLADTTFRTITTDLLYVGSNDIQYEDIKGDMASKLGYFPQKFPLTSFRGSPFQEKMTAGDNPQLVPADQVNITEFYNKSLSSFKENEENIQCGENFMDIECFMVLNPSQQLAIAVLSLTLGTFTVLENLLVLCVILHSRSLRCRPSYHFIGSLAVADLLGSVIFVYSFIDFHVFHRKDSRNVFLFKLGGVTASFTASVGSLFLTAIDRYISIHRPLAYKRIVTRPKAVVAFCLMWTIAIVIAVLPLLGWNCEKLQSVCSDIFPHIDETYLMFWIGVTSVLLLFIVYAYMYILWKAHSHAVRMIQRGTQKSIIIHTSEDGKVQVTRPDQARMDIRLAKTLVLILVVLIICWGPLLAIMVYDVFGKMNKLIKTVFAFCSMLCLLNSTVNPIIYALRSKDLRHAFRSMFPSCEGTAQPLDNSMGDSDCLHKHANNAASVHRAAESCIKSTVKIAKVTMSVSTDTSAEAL", "experiment": "CB1R radioligand experiment on membranes from HEK293 cells over-expressing human recombinant CB1", "assay_type": "binding", "conditions": "human recombinant CB1, radioligand [3H]CP-55,490, n=3", "procedure": "as §1\nCB1R experiments were performed using membranes from HEK293 cells over-expressing human recombinant CB1, as described by the manufacturer (Perkin-Elmer) and using [3H]CP-55,490 as the radioligand.\nas §2, §3"}}}
{"smiles": "CCC(C)C(=O)O[C@@H]1[C@H](OC(C)=O)c2c(ccc3ccc(=O)oc23)OC1(C)C", "note": "(some centres unmarked) [visnadin]", "values": [{"measurement": "EC50", "setting": "[1]", "value": 14.1, "unit": "µM"}, {"measurement": "EC50", "setting": "[2]", "value": "> 25", "unit": "µM"}]}
